Values joined by “and” are separate entries in the source; they are usually repeats but may differ in a detail not shown here. Identical values can stand only once. Like-named read-outs stand apart in the source and are kept apart here.
Experiments:
P388 = experiment: Mean life span and viable tumor cells of P388 inoculated mice, by delivery schedule; type: in vivo, mouse; conditions: qd; for Postinoculation Life Span: pooled 37, 62 or 104 mg/kg/injection; for Change in Life Span / Viable Cells Day 6: pooled doses
Protocol: In this example as summarized in table 30, different drug delivery regimen were utilized for compound 7 against P388 in the mouse and the postinoculation life span, the change in life span and the number of viable tumor cells at day 6 measured. For this test the data shown are pooled by schedule without regard for dosage. Each treatment group included a total of 15 mice divided into sub-groups of 5 mice treated respectively with 37, 62 or 104 mg/kg/injection of drug per sub-group. After treatment the test animals were monitored for survival.
^a P388 ascites cells (1 × 10^6) were implanted ip in
BDF1 female mice on day 0, and ip bolus injections of drug were
delivered once daily on the days indicated. The drug was delivered on the
basis of 0.01 ml/g mouse weight. Control mice received a 0.09% solution o
NaCl delivered on the same basis.

Rat Coronavirus = experiment: Antiviral activity against rat coronavirus infection in suckling rats; type: in vivo; conditions: half daily doses at -24 and -18 h, of rats that died
Excerpt: Four to five day old suckling rats were infected intranasally with rat coronavirus. One day previously a divided intraperitoneal dose of compound 7 or placebo was given. As shown in the following Table 19, a high percentage of the rats treated with compound 7 survived this lung infection. Further the rats that died lived longer than the placebo-treated controls.
^b Of rats that died. Survivors lived through 21 days.

Influenza B Virus = experiment: Antiviral activity against Influenza B virus infection in mice; type: in vivo, mouse; conditions: for Mean Survival Time: once a day at -2 h and days 2, 4, 6
Protocol: Compound 7 was tested therapeutically against Influenza B Virus Infection in Mice. In addition to a saline control Ribavirin, a known antiviral, was utilized for test purposes.
hours previrus inoculation.
^c p < .001 twotailed ttest.

YAC-1 cells = experiment: In vitro potentiation of murine natural killer cell activity (mouse spleen cells, 51Cr release); type: cell-based
Protocol: After incubation the cytotoxicity of the treated and untreated cells was determined against YAC-1 cells.
^a Spleen cells from mice were treated with 0.05 mM concentration of
amino acids and 5 × 10^-5 M Mercaptoethanol. The effector cells
were then tested for their cytotoxic activity against YAC1 target cells i
4 hr ^51 Cr release assay.
^a Spleen cells from mice were incubated in the absence and presence
of various compounds. After incubation, cells were suspended in complete
medium and then their cytotoxic activity was determined against YAC1
target cells as described in the text

sheep red blood cells = experiment: Primary anti-sheep red blood cell antibody response in mice (plaque assay); type: in vivo, mouse; conditions: C57BL/6, + SRBC, day 6
Protocol: Compound 7 was tested to determine its effects on primary antibody response against sheep red blood cells in vivo. Mice (C57BL/6) in groups of 4 were injected intraperitoneally with 0.1% sheep red blood cell suspended in saline. At various times compound 7 in various concentrations was administered intraperitoneally.
^a Groups of four C57BL/6 mice were injected i.p. with 6.5 ×
10^6 SRBC and various doses of compound 7. The number of PFC to SRBC
(shown as mean ± SD) were determined on day 6 as described in Cheever.
For Table 9 the number of antibody cells was determined by the modified Jerne, Nordin plaque assay as disclosed in Jerne, N. K., Nordin, A. A., Science 140:405, 1963.

[1] = test system: Herpes Simplex Virus Type 2; experiment: Antiviral activity against Herpes simplex virus type 2 infection in mice; type: in vivo, mouse; conditions: for Mean Survival Time: at -48, -24, and -2 h
Protocol: In this test Compound 7 was tested against both Herpes Simplex Type 1 Virus and Herpes Simplex Type 2 Virus. […] In each of these tests a placebo was utilized for control purposes. The survival time reflects survival time of those animals which succumbed during the test. […]
^b A 2% sodium bicarbonate solution was used as the placebo and as
diluent for Compound -7.
^c Statistically significant (p < .05) difference between the
drugtreated and placebo control mice, determined by the twotailed ttest.

P8/5 tumor target cells = experiment: Activation of macrophages following single injection in CBA/CaJ mice; type: in vivo; conditions: Mus musculus, Macrophage
Protocol: The activity of compound 7 with respect to its ability to activate macrophages was tested by injecting CBA/CaJ mice with a single dose of compound 7 (2 mg per mouse) and after 24 hours the cytotoxicity of the spleen cells (SC), non adherent SC and adherent SC was determined.
^a A group of four mice (CBA/CaJ) were injected with 2 mg/mouse of
compound -7 solution. Control group received saline. After 24 hours of
injection, spleens were harvested. Adherent and nonadherent cells were
separated by incubation of spleen cells on plastic plates for one hour.
Cell suspension of spleen cells, nonadherent cells (NC) and adherent cell
(AC) were prepared in complete medium. Cytotoxicity of SC, NC and AC was
then measured against P8/5 tumor t arget cells in 4 hrs and 20 hrs
chromium release assay.

Human Coronavirus = experiment: Antiviral activity against human coronavirus infection in 14 day old mice; conditions: half daily doses at -24 and -18 h, of mice that died
San Angelo Virus = type: in vivo, mouse; conditions: for Mean Survival Time: Time (21 days)
Friend Leukemia virus = Friend Leukemia virus induced spleenomegaly; type: in vivo; conditions: further test
Excerpt: As is evident from the above tables antiviral activity against a variety of viruses is seen.

Nc1nc2c(sc(=O)n2[C@@H]2O[C@H](CO)[C@@H](O)[C@H]2O)c(=O)[nH]1 [Compound 7, 5-Amino-3-β-D-ribofuranosylthiazolo[4,5-d]pyrimidine-2,7(6H)-dione]
Postinoculation Life Span (P388; day 2,4): 8.73 ± 0.59 days
Change in Life Span (P388; day 2,4): 7 % of Control
Viable Cells Day 6 (P388; day 2,4): 66 % of Control
Postinoculation Life Span (P388; day 2-6, p < 0.001): 9.13 ± 0.52 days
Change in Life Span (P388; day 2-6): 12 % of Control
Viable Cells Day 6 (P388; day 2-6): 49 % of Control
Postinoculation Life Span (P388; day 2): 8.60 ± 0.51 days
Change in Life Span (P388; day 2): 5 % of Control
Viable Cells Day 6 (P388; day 2): 73 % of Control
Mean Survival Time (Rat Coronavirus; 50): 10.1 ± 2.3 days
Mean Survival Time (Rat Coronavirus; 100): 10.2 ± 1.8 days
Mean Survival Time (Rat Coronavirus; 200): 13.0 ± 1.0 days
Mean Survival Time (Influenza B Virus; 50 mg/kg/day): 6.4 ± 1.5 days
Mean Survival Time (Influenza B Virus; 100 mg/kg/day): 6.6 ± 1.1 days
efficacy against influenza B (in words) (Influenza B Virus; Table 12): efficacy between saline, having no antiviral activity against influenza, and Ribavirin
antiviral activity against influenza B virus, further test (Influenza B Virus; further test): little or no antiviral activity
natural killer cell activity compared to Poly I:C (YAC-1 cells; 0.05 mM, 20 to 44 h): increased activity compared to Poly I:C
% Natural Killer Cell Cytotoxicity (YAC-1 cells; C57BL/6J spleen cells, treatment 0 h, compound 7 at 0.05 mM): 18%
% Natural Killer Cell Cytotoxicity (YAC-1 cells; C57BL/6J spleen cells, treatment 20 h, compound 7 at 0.05 mM): 35% and 25%
% Natural Killer Cell Cytotoxicity (YAC-1 cells; C57BL/6J spleen cells, treatment 44 h, compound 7 at 0.05 mM): 34% and 22%
% Natural Killer Cell Cytotoxicity (YAC-1 cells; CBA/CaJ spleen cells, treatment 0 h, compound 7 at 0.05 mM): 15% and 23%
% Natural Killer Cell Cytotoxicity (YAC-1 cells; CBA/CaJ spleen cells, treatment 20 h, compound 7 at 0.05 mM): 34% and 62%
% Natural Killer Cell Cytotoxicity (YAC-1 cells; CBA/CaJ spleen cells, treatment 44 h, compound 7 at 0.05 mM): 31% and 44%
% Natural Killer Cell Cytotoxicity (YAC-1 cells; Table 21, 0.05 mM): 34.5% and 25% and 28%
PFC/10^6 Spleen Cells (sheep red blood cells; 1.9 mg i.p.): 143 ± 140 PFC/10^6 Spleen Cells
PFC/10^6 Spleen Cells (sheep red blood cells; 2.97 mg i.p.): 307 ± 156 PFC/10^6 Spleen Cells and 165 ± 28 PFC/10^6 Spleen Cells
PFC/10^6 Spleen Cells (sheep red blood cells; 3.3 mg i.p.): 176 ± 105 PFC/10^6 Spleen Cells
PFC/10^6 Spleen Cells (sheep red blood cells; 4.95 mg i.p.): 467 ± 170 PFC/10^6 Spleen Cells and 433 ± 172 PFC/10^6 Spleen Cells
PFC/10^6 Spleen Cells (sheep red blood cells; 4.97 mg i.p.): 371 ± 56 PFC/10^6 Spleen Cells
Mean Survival Time ([1]; 50 mg/kg/day): 11.8 ± 2.3 days
Mean Survival Time ([1]; 100 mg/kg/day): 11.2 ± 1.5 days
toxicity ([1]; 200 mg per kg in the mouse): partially toxic
Mean Survival Time ([1]; 200 mg/kg/day): 7.2 ± 3.9 days
deaths from drug toxicity ([1]; 200 mg/kg/day, days 1 and 2 post virus inoculation): Three mice died on days 1 and 2
survival time of the rest of the mice that died ([1]; 200 mg/kg/day, excluding three toxicity deaths): 9.6 ± 0.8 days
cytotoxicity at 2 mg (P8/5 tumor target cells; 4 h, adherent cells, 4 hrs assay): 37%
cytotoxicity at 2 mg (P8/5 tumor target cells; 4 h, nonadherent spleen cells, 4 hrs assay): 45%
cytotoxicity at 2 mg (P8/5 tumor target cells; 20 h, adherent cells, 20 hrs assay): 69%
cytotoxicity at 2 mg (P8/5 tumor target cells; 20 h, nonadherent spleen cells, 20 hrs assay): 70%
Mean Survival Time (Human Coronavirus; 50 mg/kg): 6.9 ± 2.2 days
Mean Survival Time (Human Coronavirus; 100 mg/kg): 7.2 ± 2.0 days
Mean Survival Time (Human Coronavirus; 200 mg/kg): 7.0 ± 1.4 days
Mean Survival Time (San Angelo Virus; 50 mg/kg/day, once a day at -2 h and days 2, 4, 6): > 13.0 ± 0.0 days
Mean Survival Time (San Angelo Virus; 100 mg/kg/day, once a day at -2 h and days 2, 4, 6): > 21 days
Mean Survival Time (San Angelo Virus; 200 mg/kg/day, -2 h and days 2, 4, 6, half daily doses twice a day): > 21 days
Mean Survival Time (San Angelo Virus; 200 mg/kg/day, half-daily doses at 24 and 16 h pre-virus (prophylactic)): > 21 days
antiviral activity compared with Ribavirin (San Angelo Virus; therapeutic and prophylactic mode): antiviral activity equal to that of Ribavirin
antiviral activity against Friend Leukemia virus induced spleenomegaly (Friend Leukemia virus): little or no antiviral activity

— patent US5041426A, “Immune system enhancing 3-β-d-ribofuranosylthiazolo[4,5-d]pyridimine nucleosides and nucleotides” (priority 1988, dated 1991)
